One data set deals with CYP2D6. The note with it: cited from earlier work.
For a further data set, the system named is HEK293-hERG1a/1b cells. The experiment in a line: Cell proliferation assay (CellTiter 96 AQueous One), 72 h. The class given is cell-based, human. Here is the method: Trypan blue exclusion test was carried out to determine the effect of transfection on HEK293-hERG1a/1b cell viability. Briefly, cell suspension was mixed with 0.4% (v/v) trypan blue solution in a ratio of 1:1 and the viability of the cells were analyzed using Countess® II FL automated cell counter (Invitrogen, USA). For cell proliferation assay, cells were first seeded at a density of 5000 cells/well onto two 96-well plates (T0 and T1) and were incubated at 37 °C for 24 h in a humidified incubator supplemented with 5% (v/v) CO2. Subsequently, cells in T0 plate were subjected to cell proliferation assay as described previously. Meanwhile, cells in T1 plate were cultured in reduced serum medium (0.5% v/v FBS) for 4 h and treated with various concentrations of mitragynine. After 72 h, cell proliferation was determined using CellTiter 96® AQueous One Solution Cell Proliferation Assay (Promega, USA) following manufacturer’s protocol. Cell proliferation results were expressed as percentage growth (PG)[65]. The response parameters GI50 (half maximal growth inhibitory concentration), TGI (total growth inhibition) and LC50 (half maximal lethal concentration) values were derived from a non-linear regression model (curvefit) based on dose response-inhibition curve and computed using GraphPad Prism® 5.01 (GraphPad Software, USA). The GI50, TGI and LC50 are interpolated values representing the concentrations at which the PG is +50, 0 and −50 respectively. Data are presented as mean PG for three independent experiments.

A further data set has as its system Hsp70. Description: Western blot of endogenous chaperone expression in HEK-hERG1a/1b cells. The class given is cell-based, human. The note with it: exposure for 24 h. How it is done: (§1) Total protein was isolated using RIPA lysis buffer system (Santa Cruz Biotechnology, Inc., USA). Equal amounts of protein samples were loaded onto 7.5% (v/v) polyacrylamide gels and were subsequently transferred to Immobilon®-P PVDF membrane (Millipore, USA) using Trans-Blot® Turbo™ Blotting System (Bio-Rad Laboratories, USA). Blots were blocked with 3% (w/v) skim milk for 1 h and probed with optimized primary antibodies against hERG1a (1:5000), hERG1b (1:1250), Hsp70 (1:10, 000), Hsp90 (1:5000) and β-actin (1:5000) overnight at 4 °C. Finally, the blots were then incubated in horseradish peroxidase (HRP) conjugated secondary antibody (1:1000) for 2.5 h followed by Clarity™ Western ECL substrate (Bio-Rad Laboratories, USA). The antibodies used for Western blotting were rabbit hERG1a polyclonal antibody (Enzo Life Sciences, USA), rabbit hERG1b polyclonal antibody (Enzo Life Sciences, USA), rabbit Hsc70/Hsp70 polyclonal antibody (Enzo Life Sciences, USA), rabbit Hsp90 polyclonal antibody (Enzo Life Sciences, USA), rabbit β-actin antibody (Cell Signaling, USA) and anti-rabbit IgG HRP-linked antibody (Cell Signaling, USA). Chemiluminescence signal was detected using ChemiDoc™ XRS Imaging System (Bio-Rad Laboratories, USA). Band densities were scanned and quantified using Image Lab Software (Bio-Rad Laboratories, USA). […]

The test system of another data set is Hsp90. Described as above. The class given is cell-based, human. The note with it: exposure for 24 h. How it is done:
as §1

Data set [1] deals with GIRK (G protein-coupled inward rectifier potassium) channels. Also noted: method as in PMID 27260674. The settings on record: heterologous expression systems; cited from earlier work.
In the next data set the target is hERG1a/1b current (Homo sapiens, UniProt Q12809). Here is the method:
All working solutions were sterile-filtered, stored at −20 °C and thawed to room temperature before use.
Prior to electrophysiology study, the HEK293-hERG1a/1b cells were first grown in complete medium without selection antibiotics for 6 days. Approximately 5.0 × 10^5 cells were then plated onto an uncoated 96-mm cell culture dish for a maximum of 3 days. […] The cell suspension was then transferred into a 15-ml polypropylene tube and centrifuged at 100 × g for 3 min. Subsequently, the cell pellet was resuspended in extracellular solution to obtain a final density of 2 × 10^6–3 × 10^6 cells/ml and incubated on ice for 20 min to allow cell recovery. The electrophysiology studies were performed using NPC®-1 chips (Nanion Technologies, Germany) and Port-a-Patch system (Nanion Technologies, Germany) following manufacturer’s instructions, within the next 2 h. For characterization and determination of the hERG1a/1b current inhibition, a series of voltage protocols were applied as published previously.
The hERG1a/1b current was recorded in cells achieving whole-cell configuration. Briefly, a single cell was first held at −80 mV, the theoretical cardiac resting membrane potential, on the aperture of the NPC-1 chip (Nanion Technologies, Germany). To characterize the I-V relationship, the cell was depolarized to test potentials ranging from −60 mV to +50 mV for 4 s in […], followed by a 5-s step to −50 mV before returning to −80mV.
To determine the pharmacological effects of the HEK293-hERG1a/1b cells, the cells were perfused with test compound solutions using an external perfusion system. […] The mean of six successive Itail was recorded for each test concentration. Four independent experiments were conducted to derive the dose-response curve.

mitragynine: the “effect on CYP2D6” value in the data set on CYP2D6 is listed as “potent inhibitory activity”. Also, in the data set on HEK293-hERG1a/1b cells, the GI50 (in general, the concentration at which growth is held to half of that of the control) was 30.2 µM; the LC50 (usually the concentration that kills 50% of the test population) was 85.1 µM; the TGI (as a rule, the concentration giving total growth inhibition) is 57.68 µM. In the data set with Hsp70, the Hsp70 levels result is “neither Hsp70 nor Hsp90 levels were significantly altered”. In addition, the Hsp90 levels result in the data set with Hsp90 is on record as “neither Hsp70 nor Hsp90 levels were significantly altered”. In addition, in data set [1], the “effect on GIRK channels” value is “inhibit”. Also, the “Hill coefficient (h)” value at hERG1a/1b current (dose-response fit of hERG1a/1b tail current inhibition) is recorded as 0.61. Further, the IC50 at hERG1a/1b current (read-out: IC50 of hERG1a/1b current inhibition, peak tail current, step pulse protocol, HEK293-hERG1a/1b cells, four independent experiments) turned out to be 333 nM.

These data come from PMC6930223 (Scientific Reports, 2019).
